Species: Rattus norvegicus
Test: Open TG-GATES - Regimen: Daily Repeat
Type: toxicity, organism-based, Sprague-Dawley
Design: regimen Daily Repeat, gender Male, age 6 weeks
Details: in vivo, po, 300 mg/kg, route gavage, dose level Middle; for APTT / Bas / Eos / Fbg / Hb / Ht / Lym / MCH / MCHC / MCV / Mono / Neu / PT / Plat / RBC / Ret / WBC: tissue Blood; for KIDNEY_L / KIDNEY_R / KIDNEY_TOTAL: tissue Kidney; for LIVER: tissue Liver; for A/G / ALP / ALT / AST / BUN / CRE / Ca / Cl / DBIL / GLC / IP / K / LDH / Na / PL / RALB / TBIL / TC / TG / TP / gamma-GTP: tissue Plasma

Structure (SMILES): CCOC(=O)CCC(=O)O[C@H]1[C@H](O[C@@H]2[C@@H](C)[C@H](O[C@H]3C[C@@](C)(OC)[C@@H](O)[C@H](C)O3)[C@@H](C)C(=O)O[C@H](CC)[C@@](C)(O)[C@H](O)[C@@H](C)C(=O)[C@H](C)C[C@@]2(C)O)O[C@H](C)C[C@@H]1N(C)C [ERYTHROMYCIN ETHYLSUCCINATE]
- TERMINAL_BW (72 h, time 3 day): 237.7 g
- APTT (72 h, time 3 day): 21.3 s
- Bas (72 h, time 3 day): 0%
- Eos (72 h, time 3 day): 1%
- Fbg (72 h, time 3 day): 311.6 mg/dL
- Hb (72 h, time 3 day): 13.5 g/dL
- Ht (72 h, time 3 day): 39.3%
- Lym (72 h, time 3 day): 83.2%
- MCH (72 h, time 3 day): 21.5 pg
- MCHC (72 h, time 3 day): 34.4%
- MCV (72 h, time 3 day): 62.7 fL
- Mono (72 h, time 3 day): 3%
- Neu (72 h, time 3 day): 11.8%
- PT (72 h, time 3 day): 15.8 s
- Plat (72 h, time 3 day): 114.1 x10_4/uL
- RBC (72 h, time 3 day): 627.6 x10_4/ul
- Ret (72 h, time 3 day): 5.1%
- WBC (72 h, time 3 day): 94.1 x10_2/uL
- KIDNEY_L (72 h, time 3 day): 1 g
- KIDNEY_R (72 h, time 3 day): 1 g
- KIDNEY_TOTAL (72 h, time 3 day): 2 g
- LIVER (72 h, time 3 day): 10.9 g
- A/G (72 h, time 3 day): 1.2
- ALP (72 h, time 3 day): 1728.8 IU/L
- ALT (72 h, time 3 day): 44 IU/L
- AST (72 h, time 3 day): 76 IU/L
- BUN (72 h, time 3 day): 18.6 mg/dL
- CRE (72 h, time 3 day): 0.2 mg/dL
- Ca (72 h, time 3 day): 10.4 mg/dL
- Cl (72 h, time 3 day): 108 meq/L
- DBIL (72 h, time 3 day): 0 mg/dL
- GLC (72 h, time 3 day): 192.6 mg/dL
- IP (72 h, time 3 day): 7.3 mg/dL
- K (72 h, time 3 day): 4.2 meq/L
- LDH (72 h, time 3 day): 261 IU/L
- Na (72 h, time 3 day): 141.2 meq/L
- PL (72 h, time 3 day): 133.8 mg/dL
- RALB (72 h, time 3 day): 3 g/dL
- TBIL (72 h, time 3 day): 0.016 mg/dL
- TC (72 h, time 3 day): 72.2 mg/dL
- TG (72 h, time 3 day): 100.6 mg/dL
- TP (72 h, time 3 day): 5.5 g/dL
- gamma-GTP (72 h, time 3 day): 1.4 IU/L
- TERMINAL_BW ([…], time 7 day): 269.9 g
- TERMINAL_BW ([…], time 14 day): 321.9 g
- TERMINAL_BW ([…], time 28 day): 391.2 g
- APTT ([…], time 7 day): 22.2 s
- Bas ([…], time 7 day): 0%
- Eos ([…], time 7 day): 1%
- Fbg ([…], time 7 day): 331.6 mg/dL
- Hb ([…], time 7 day): 13.7 g/dL
- Ht ([…], time 7 day): 40.6%
- Lym ([…], time 7 day): 84.8%
- MCH ([…], time 7 day): 20.9 pg
- MCHC ([…], time 7 day): 33.6%
- MCV ([…], time 7 day): 62.3 fL
- Mono ([…], time 7 day): 2.2%
- Neu ([…], time 7 day): 11.2%
- PT ([…], time 7 day): 16.3 s
- Plat ([…], time 7 day): 120.3 x10_4/uL
- RBC ([…], time 7 day): 653 x10_4/ul
- Ret ([…], time 7 day): 6.3%
- WBC ([…], time 7 day): 86.1 x10_2/uL
- APTT ([…], time 14 day): 22.1 s
- Bas ([…], time 14 day): 0%
- Eos ([…], time 14 day): 1%
- Fbg ([…], time 14 day): 335.6 mg/dL
- Hb ([…], time 14 day): 14.1 g/dL
- Ht ([…], time 14 day): 40.7%
- Lym ([…], time 14 day): 87.4%
- MCH ([…], time 14 day): 20.5 pg
- MCHC ([…], time 14 day): 34.7%
- MCV ([…], time 14 day): 58.9 fL
- Mono ([…], time 14 day): 2.2%
- Neu ([…], time 14 day): 8.2%
- PT ([…], time 14 day): 16.1 s
- Plat ([…], time 14 day): 116 x10_4/uL
- RBC ([…], time 14 day): 690 x10_4/ul
- Ret ([…], time 14 day): 4.9%
- WBC ([…], time 14 day): 110.3 x10_2/uL
- APTT ([…], time 28 day): 24.1 s
- Bas ([…], time 28 day): 0%
- Eos ([…], time 28 day): 1.2%
- Fbg ([…], time 28 day): 339.2 mg/dL
- Hb ([…], time 28 day): 15.6 g/dL
- Ht ([…], time 28 day): 45.3%
- Lym ([…], time 28 day): 85.4%
- MCH ([…], time 28 day): 19 pg
- MCHC ([…], time 28 day): 34.3%
- MCV ([…], time 28 day): 55.3 fL
- Mono ([…], time 28 day): 2.4%
- Neu ([…], time 28 day): 9.2%
- PT ([…], time 28 day): 16 s
- Plat ([…], time 28 day): 99.2 x10_4/uL
- RBC ([…], time 28 day): 819.8 x10_4/ul
- Ret ([…], time 28 day): 2.5%
- WBC ([…], time 28 day): 96.8 x10_2/uL
- KIDNEY_L ([…], time 7 day): 1.1 g
- KIDNEY_R ([…], time 7 day): 1.1 g
- KIDNEY_TOTAL ([…], time 7 day): 2.2 g
- KIDNEY_L ([…], time 14 day): 1.3 g
- KIDNEY_R ([…], time 14 day): 1.3 g
- KIDNEY_TOTAL ([…], time 14 day): 2.6 g
- KIDNEY_L ([…], time 28 day): 1.4 g
- KIDNEY_R ([…], time 28 day): 1.4 g
- KIDNEY_TOTAL ([…], time 28 day): 2.9 g
- LIVER ([…], time 7 day): 12.2 g
- LIVER ([…], time 14 day): 13.9 g
- LIVER ([…], time 28 day): 15.4 g
- A/G ([…], time 7 day): 1.2
- ALP ([…], time 7 day): 1819.6 IU/L
- ALT ([…], time 7 day): 42.4 IU/L
- AST ([…], time 7 day): 70.4 IU/L
- BUN ([…], time 7 day): 19 mg/dL
- CRE ([…], time 7 day): 0.2 mg/dL
- Ca ([…], time 7 day): 10.6 mg/dL
- Cl ([…], time 7 day): 107.6 meq/L
- DBIL ([…], time 7 day): 0 mg/dL
- GLC ([…], time 7 day): 194.6 mg/dL
- IP ([…], time 7 day): 7.3 mg/dL
- K ([…], time 7 day): 4.1 meq/L
- LDH ([…], time 7 day): 185.6 IU/L
- Na ([…], time 7 day): 142 meq/L
- PL ([…], time 7 day): 148.2 mg/dL
- RALB ([…], time 7 day): 3 g/dL
- TBIL ([…], time 7 day): 0.002 mg/dL
- TC ([…], time 7 day): 76 mg/dL
- TG ([…], time 7 day): 123.6 mg/dL
- TP ([…], time 7 day): 5.5 g/dL
- gamma-GTP ([…], time 7 day): 1.6 IU/L
- A/G ([…], time 14 day): 1.1
- ALP ([…], time 14 day): 1368.6 IU/L
- ALT ([…], time 14 day): 35 IU/L
- AST ([…], time 14 day): 70.2 IU/L
- BUN ([…], time 14 day): 19.4 mg/dL
- CRE ([…], time 14 day): 0.2 mg/dL
- Ca ([…], time 14 day): 10.4 mg/dL
- Cl ([…], time 14 day): 107.6 meq/L
- DBIL ([…], time 14 day): 0 mg/dL
- GLC ([…], time 14 day): 206.6 mg/dL
- IP ([…], time 14 day): 7.2 mg/dL
- K ([…], time 14 day): 4 meq/L
- LDH ([…], time 14 day): 157.8 IU/L
- Na ([…], time 14 day): 141.8 meq/L
- PL ([…], time 14 day): 146.8 mg/dL
- RALB ([…], time 14 day): 2.9 g/dL
- TBIL ([…], time 14 day): 0.01 mg/dL
- TC ([…], time 14 day): 79.8 mg/dL
- TG ([…], time 14 day): 105.2 mg/dL
- TP ([…], time 14 day): 5.5 g/dL
- gamma-GTP ([…], time 14 day): 1.6 IU/L
- A/G ([…], time 28 day): 1.1
- ALP ([…], time 28 day): 1061.2 IU/L
- ALT ([…], time 28 day): 36.8 IU/L
- AST ([…], time 28 day): 59.2 IU/L
- BUN ([…], time 28 day): 19.6 mg/dL
- CRE ([…], time 28 day): 0.2 mg/dL
- Ca ([…], time 28 day): 10.5 mg/dL
- Cl ([…], time 28 day): 106.4 meq/L
- DBIL ([…], time 28 day): 0 mg/dL
- GLC ([…], time 28 day): 203.4 mg/dL
- IP ([…], time 28 day): 6.9 mg/dL
- K ([…], time 28 day): 4 meq/L
- LDH ([…], time 28 day): 130.6 IU/L
- Na ([…], time 28 day): 141.4 meq/L
- PL ([…], time 28 day): 151.8 mg/dL
- RALB ([…], time 28 day): 3.1 g/dL
- TBIL ([…], time 28 day): 0.014 mg/dL
- TC ([…], time 28 day): 78.2 mg/dL
- TG ([…], time 28 day): 140 mg/dL
- TP ([…], time 28 day): 5.8 g/dL
- gamma-GTP ([…], time 28 day): 2.2 IU/L
